Laboratory results taken from ChEMBL document CHEMBL3243936, “Facile syntheses of potent dopaminergic argonists and their effect on neurotransmitter release” (J Med Chem, 1978).
The source made the active and inactive calls. No cut-off for these calls is given here.

Columns and labels:
[1] = target: Sodium-dependent dopamine transporter (Rattus norvegicus) (UniProt P23977); test: Agonist activity at Wistar rat striatum dopamine transporter assessed as tritium efflux by measuring [3H]dopamine release at 2 uM after 20 mins by liquid scintillation counting analysis relative to total tissue content
Sequence of Sodium-dependent dopamine transporter (Rattus norvegicus) (P23977 whole entry): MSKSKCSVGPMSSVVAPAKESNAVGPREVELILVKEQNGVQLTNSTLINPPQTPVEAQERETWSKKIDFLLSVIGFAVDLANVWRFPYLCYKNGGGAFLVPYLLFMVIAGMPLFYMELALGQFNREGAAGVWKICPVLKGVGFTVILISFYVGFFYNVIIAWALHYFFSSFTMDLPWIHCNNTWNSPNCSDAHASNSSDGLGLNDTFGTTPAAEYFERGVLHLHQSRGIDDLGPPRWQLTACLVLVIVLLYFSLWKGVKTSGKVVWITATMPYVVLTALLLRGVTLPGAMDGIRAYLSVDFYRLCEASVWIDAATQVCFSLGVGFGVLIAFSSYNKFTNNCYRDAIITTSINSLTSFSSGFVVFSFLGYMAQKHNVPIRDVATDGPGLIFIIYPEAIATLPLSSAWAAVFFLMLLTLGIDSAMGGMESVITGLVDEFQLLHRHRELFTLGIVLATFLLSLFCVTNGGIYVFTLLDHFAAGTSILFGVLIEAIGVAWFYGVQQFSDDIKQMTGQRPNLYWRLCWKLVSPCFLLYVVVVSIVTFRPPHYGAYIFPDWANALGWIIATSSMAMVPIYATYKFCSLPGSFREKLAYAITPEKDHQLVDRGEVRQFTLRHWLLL

[2] = target: T1, Vesicular acetylcholine transporter (Rattus norvegicus) (UniProt Q62666); test: Agonist activity at Wistar rat brain cholinergic transporter assessed as tritium efflux by measuring [3H]choline release at 2 uM after 20 to 30 mins by liquid scintillation counting analysis relative to control
T1 sequence (whole entry): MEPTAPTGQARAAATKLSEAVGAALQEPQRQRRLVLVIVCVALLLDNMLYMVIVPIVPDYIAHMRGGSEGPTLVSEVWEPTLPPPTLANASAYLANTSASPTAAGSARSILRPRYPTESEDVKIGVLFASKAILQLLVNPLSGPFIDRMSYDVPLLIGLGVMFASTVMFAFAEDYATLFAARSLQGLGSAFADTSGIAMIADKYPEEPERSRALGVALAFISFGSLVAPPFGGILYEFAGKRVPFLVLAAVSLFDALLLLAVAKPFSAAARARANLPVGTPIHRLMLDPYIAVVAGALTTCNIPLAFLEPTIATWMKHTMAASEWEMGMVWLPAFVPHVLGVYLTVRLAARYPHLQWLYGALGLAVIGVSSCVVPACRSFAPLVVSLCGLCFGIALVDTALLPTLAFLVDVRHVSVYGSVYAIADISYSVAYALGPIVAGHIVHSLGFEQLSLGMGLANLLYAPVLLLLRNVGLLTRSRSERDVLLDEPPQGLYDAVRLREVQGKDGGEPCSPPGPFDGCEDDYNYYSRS

[3] = species: Rattus norvegicus; test: Agonist activity at Wistar rat brain GABA transporter assessed as tritium efflux by measuring [3H]GABA release at 2 uM after 20 to 30 mins by liquid scintillation counting analysis relative to control
[4] = target: Sodium-dependent serotonin transporter (Rattus norvegicus) (UniProt P31652); test: Agonist activity at Wistar rat brain serotonin transporter assessed as tritium efflux by measuring [3H]serotonin release at 2 uM after 20 to 30 mins by liquid scintillation counting analysis relative to control
Sequence of Sodium-dependent serotonin transporter (Rattus norvegicus) (P31652 whole entry): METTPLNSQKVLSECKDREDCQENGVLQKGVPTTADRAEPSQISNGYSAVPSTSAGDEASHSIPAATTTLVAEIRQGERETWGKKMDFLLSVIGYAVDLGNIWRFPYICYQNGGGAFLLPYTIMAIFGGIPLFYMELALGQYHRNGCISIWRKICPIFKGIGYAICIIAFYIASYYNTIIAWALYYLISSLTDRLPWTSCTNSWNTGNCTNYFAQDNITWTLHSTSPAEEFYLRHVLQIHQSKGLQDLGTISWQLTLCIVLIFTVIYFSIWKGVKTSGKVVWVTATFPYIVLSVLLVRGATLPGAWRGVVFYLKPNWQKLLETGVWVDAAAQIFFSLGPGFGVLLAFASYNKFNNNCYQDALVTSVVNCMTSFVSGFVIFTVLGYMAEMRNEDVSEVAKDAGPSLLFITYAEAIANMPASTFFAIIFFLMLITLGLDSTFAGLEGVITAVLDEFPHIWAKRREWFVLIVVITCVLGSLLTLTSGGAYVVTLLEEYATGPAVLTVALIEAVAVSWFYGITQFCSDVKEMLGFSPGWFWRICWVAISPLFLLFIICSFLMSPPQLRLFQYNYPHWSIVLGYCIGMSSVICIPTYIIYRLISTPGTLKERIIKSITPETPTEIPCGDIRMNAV

[5] = target: Sodium-dependent dopamine transporter (Rattus norvegicus) (UniProt P23977); test: Agonist activity at Wistar rat striatum dopamine transporter assessed as tritium efflux by measuring [3H]dopamine release at 1 uM after 20 to 30 mins by liquid scintillation counting analysis in presence of nomifensine
[6] = target: Sodium-dependent dopamine transporter (Rattus norvegicus) (UniProt P23977); test: Agonist activity at Wistar rat cortex dopamine transporter assessed as tritium efflux by measuring [3H]noradrenaline release at 1 uM after 20 to 30 mins by liquid scintillation counting analysis in presence of nomifensine; format: tissue-based

Structure (SMILES) | Activity [1] | Activity [2] | Activity [3] | Activity [4] | Activity [5] | Activity [6]
NC1CCc2ccccc2C1 (stereo unspecified) | -0.7% | – | – | – | – | –
NC1CCc2cc(O)c(O)cc2C1 (stereo unspecified) | 25.1% | inactive | inactive | inactive | inactive | inactive
NC1CCc2c(ccc(O)c2O)C1 (stereo unspecified) | 6.5% | inactive | inactive | inactive | – | –
